PubChem BioAssay AID1963838 (Molecular Pharmacology Branch, DTP, NCI, 2024)

Tested on: 855422-203-R-J1-PDC complex spheroid viability
Assay: Anticancer human tumor 855422-203-R-J1-PDC patient-derived bladder carcinoma cell line growth inhibition [POLQ]
Conditions: for IC50: curve of first compound; for viability, T/C: stronger effect = lower value; active = viability on the fitted dose curve at most 10% of control; inactive = the rest
Summary of the method: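 Growth inhibition in 3D: complex spheroids (tumor PDC, HUVEC, MSC) treated with POLQ inhibitor combinations; where Cmax unknown, highest tested concentration 10 microM, except SN-38 at 1 microM.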

[1] = second compound 0.0316 µM, first compound 0.0316 µM
[2] = second compound 0.0316 µM, first compound 0.1 µM
[3] = second compound 0.0316 µM, first compound 0.316 µM
[4] = second compound 0.0316 µM, first compound 1 µM
[5] = second compound 0.0316 µM, first compound 3.16 µM
[6] = second compound 0.0316 µM, first compound 10 µM
[7] = second compound 0.1 µM, first compound 0.0316 µM
[8] = second compound 0.1 µM, first compound 0.1 µM
[9] = second compound 0.1 µM, first compound 0.316 µM
[10] = second compound 0.1 µM, first compound 1 µM
[11] = second compound 0.1 µM, first compound 3.16 µM
[12] = second compound 0.1 µM, first compound 10 µM
[13] = second compound 0.316 µM, first compound 0.0316 µM
[14] = second compound 0.316 µM, first compound 0.1 µM
[15] = second compound 0.316 µM, first compound 0.316 µM
[16] = second compound 0.316 µM, first compound 1 µM
[17] = second compound 0.316 µM, first compound 3.16 µM
[18] = second compound 0.316 µM, first compound 10 µM
[19] = second compound 1 µM, first compound 0.0316 µM
[20] = second compound 1 µM, first compound 0.1 µM
[21] = second compound 1 µM, first compound 0.316 µM
[22] = second compound 1 µM, first compound 1 µM
[23] = second compound 1 µM, first compound 3.16 µM
[24] = second compound 1 µM, first compound 10 µM
[25] = second compound 3.16 µM, first compound 0.0316 µM
[26] = second compound 3.16 µM, first compound 0.1 µM
[27] = second compound 3.16 µM, first compound 0.316 µM
[28] = second compound 3.16 µM, first compound 1 µM
[29] = second compound 3.16 µM, first compound 3.16 µM
[30] = second compound 3.16 µM, first compound 10 µM
[31] = second compound 10 µM, first compound 0.0316 µM
[32] = second compound 10 µM, first compound 0.1 µM
[33] = second compound 10 µM, first compound 0.316 µM
[34] = second compound 10 µM, first compound 1 µM
[35] = second compound 10 µM, first compound 3.16 µM
[36] = second compound 10 µM, first compound 10 µM
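Note: spheroids exposed to compounds for seven days before readout.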

CC1COCCN1c1cc(-c2ccnn2C)c2ccnc(-c3ccn[nH]3)c2n1 (stereo not drawn) + Cc1cccc(N(C)C(=O)C2C(O)CCN2c2nc(C)cc(C(F)(F)F)c2C#N)c1
152 nM: IC50 (second compound 0.1 µM)
inactive: viability, T/C [1] 113% | viability, T/C [2] 73% | viability, T/C [3] 21.4% | viability, T/C [7] 94.7% | viability, T/C [8] 68.9% | viability, T/C [9] 17.3% | viability, T/C [13] 108% | viability, T/C [14] 73.4% | viability, T/C [15] 20.4% | viability, T/C [19] 111% | viability, T/C [20] 70.3% | viability, T/C [21] 23.3% | viability, T/C [22] 11.7% | viability, T/C [25] 105% | viability, T/C [26] 66.8% | viability, T/C [27] 22.7% | viability, T/C [31] 93.5% | viability, T/C [32] 70.3% | viability, T/C [33] 24.7% | viability, T/C [34] 12.4%
active: viability, T/C [4] 12.4% | viability, T/C [5] 7.93% | viability, T/C [6] 7.23% | viability, T/C [10] 9.3% | viability, T/C [11] 8.23% | viability, T/C [12] 7.12% | viability, T/C [16] 10.9% | viability, T/C [17] 7.43% | viability, T/C [18] 7.37% | viability, T/C [23] 8.35% | viability, T/C [24] 7.83% | viability, T/C [28] 10.6% | viability, T/C [29] 7.46% | viability, T/C [30] 6.31% | viability, T/C [35] 8.8% | viability, T/C [36] 9.23%
168 nM: IC50 (second compound 0.0316 µM)
155 nM: IC50 (second compound 3.16 µM)
165 nM: IC50 (second compound 1 µM)
167 nM: IC50 (second compound 0.316 µM) | IC50 (second compound 10 µM)

CC1COCCN1c1cc(C2(S(C)(=N)=O)CC2)nc(-c2ccnc3[nH]ccc23)n1 (stereo not drawn) + Cc1cccc(N(C)C(=O)C2C(O)CCN2c2nc(C)cc(C(F)(F)F)c2C#N)c1
2560 nM: IC50 (second compound 0.0316 µM)
2660 nM: IC50 (second compound 0.1 µM)
2140 nM: IC50 (second compound 10 µM)
2500 nM: IC50 (second compound 0.316 µM)
2490 nM: IC50 (second compound 1 µM)
inactive: viability, T/C [1] 112% | viability, T/C [2] 97.3% | viability, T/C [3] 107% | viability, T/C [4] 106% | viability, T/C [5] 37.4% | viability, T/C [6] 12.5% | viability, T/C [7] 94.7% | viability, T/C [8] 107% | viability, T/C [9] 115% | viability, T/C [10] 100% | viability, T/C [11] 41.1% | viability, T/C [12] 10.7% | viability, T/C [13] 96.3% | viability, T/C [14] 106% | viability, T/C [15] 101% | viability, T/C [16] 107% | viability, T/C [17] 36.6% | viability, T/C [18] 10.6% | viability, T/C [19] 110% | viability, T/C [20] 123% | viability, T/C [21] 115% | viability, T/C [22] 103% | viability, T/C [23] 36% | viability, T/C [24] 10.8% | viability, T/C [25] 105% | viability, T/C [26] 119% | viability, T/C [27] 94.5% | viability, T/C [28] 105% | viability, T/C [29] 31.4% | viability, T/C [30] 10.2% | viability, T/C [31] 103% | viability, T/C [32] 102% | viability, T/C [33] 105% | viability, T/C [34] 97.5% | viability, T/C [35] 25.7% | viability, T/C [36] 14.1%
2370 nM: IC50 (second compound 3.16 µM)

CCCS(=O)(=O)Nc1ccc(F)c(C(=O)c2c[nH]c3ncc(-c4ccc(Cl)cc4)cc23)c1F + Cc1cccc(N(C)C(=O)C2C(O)CCN2c2nc(C)cc(C(F)(F)F)c2C#N)c1
active: viability, T/C [6] 6.85% | viability, T/C [12] 8.21% | viability, T/C [24] 5.7% | viability, T/C [30] 4.79% | viability, T/C [36] 2.01%
6040 nM: IC50 (second compound 1 µM)
inactive: viability, T/C [1] 104% | viability, T/C [2] 131% | viability, T/C [3] 99.9% | viability, T/C [4] 104% | viability, T/C [5] 109% | viability, T/C [7] 98% | viability, T/C [8] 119% | viability, T/C [9] 99% | viability, T/C [10] 103% | viability, T/C [11] 121% | viability, T/C [13] 103% | viability, T/C [14] 125% | viability, T/C [15] 101% | viability, T/C [16] 110% | viability, T/C [17] 115% | viability, T/C [18] 14.1% | viability, T/C [19] 97% | viability, T/C [20] 111% | viability, T/C [21] 96% | viability, T/C [22] 107% | viability, T/C [23] 123% | viability, T/C [25] 97.8% | viability, T/C [26] 133% | viability, T/C [27] 139% | viability, T/C [28] 127% | viability, T/C [29] 128% | viability, T/C [31] 109% | viability, T/C [32] 134% | viability, T/C [33] 139% | viability, T/C [34] 180% | viability, T/C [35] 142%
6480 nM: IC50 (second compound 3.16 µM)
6520 nM: IC50 (second compound 0.316 µM)
6140 nM: IC50 (second compound 0.0316 µM)
6180 nM: IC50 (second compound 0.1 µM)
6720 nM: IC50 (second compound 10 µM)

Cn1ncnc1[C@H]1c2n[nH]c(=O)c3cc(F)cc(c23)N[C@@H]1c1ccc(F)cc1 + Cc1cccc(N(C)C(=O)C2C(O)CCN2c2nc(C)cc(C(F)(F)F)c2C#N)c1
> 100 nM: IC50 (second compound 0.0316 µM) | IC50 (second compound 0.1 µM) | IC50 (second compound 0.316 µM) | IC50 (second compound 1 µM) | IC50 (second compound 3.16 µM) | IC50 (second compound 10 µM)
inactive: viability, T/C (second compound 0.0316 µM, first compound 0.000316 µM) 114% | viability, T/C (second compound 0.0316 µM, first compound 0.001 µM) 107% | viability, T/C (second compound 0.0316 µM, first compound 0.00316 µM) 115% | viability, T/C (second compound 0.0316 µM, first compound 0.01 µM) 108% | viability, T/C [1] 108% | viability, T/C [2] 103% | viability, T/C (second compound 0.1 µM, first compound 0.000316 µM) 102% | viability, T/C (second compound 0.1 µM, first compound 0.001 µM) 103% | viability, T/C (second compound 0.1 µM, first compound 0.00316 µM) 98.5% | viability, T/C (second compound 0.1 µM, first compound 0.01 µM) 100% | viability, T/C [7] 105% | viability, T/C [8] 107% | viability, T/C (second compound 0.316 µM, first compound 0.000316 µM) 108% | viability, T/C (second compound 0.316 µM, first compound 0.001 µM) 104% | viability, T/C (second compound 0.316 µM, first compound 0.00316 µM) 116% | viability, T/C (second compound 0.316 µM, first compound 0.01 µM) 104% | viability, T/C [13] 116% | viability, T/C [14] 104% | viability, T/C (second compound 1 µM, first compound 0.000316 µM) 100% | viability, T/C (second compound 1 µM, first compound 0.001 µM) 109% | viability, T/C (second compound 1 µM, first compound 0.00316 µM) 112% | viability, T/C (second compound 1 µM, first compound 0.01 µM) 102% | viability, T/C [19] 104% | viability, T/C [20] 97.3% | viability, T/C (second compound 3.16 µM, first compound 0.000316 µM) 98.6% | viability, T/C (second compound 3.16 µM, first compound 0.001 µM) 98% | viability, T/C (second compound 3.16 µM, first compound 0.00316 µM) 96.4% | viability, T/C (second compound 3.16 µM, first compound 0.01 µM) 113% | viability, T/C [25] 113% | viability, T/C [26] 104% | viability, T/C (second compound 10 µM, first compound 0.000316 µM) 109% | viability, T/C (second compound 10 µM, first compound 0.001 µM) 103% | viability, T/C (second compound 10 µM, first compound 0.00316 µM) 94.4% | viability, T/C (second compound 10 µM, first compound 0.01 µM) 100% | viability, T/C [31] 111% | viability, T/C [32] 99.2%
